Key:
[1] = tested on: normal NK cells expanded with K562-aAPC; assay: percent inhibition of viability; higher = more inhibition; conditions: 72 h, IL-2 2.5 ng/mL
Experimental: (§1)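 Drug sensitivity and resistance testing on K562-aAPC-expanded normal NK cells: 5 concentrations (10-fold steps over a 10,000-fold range), 72 h at 37 °C, viability by CellTiter-Glo normalised to DMSO and benzethonium chloride controls; DSS from the fitted curve.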

DERL-7 (IL-2 2.5 ng/mL) [2] = assay: as above; conditions: 72 h
IMC-1 (IL-2 20 ng/mL) [3] = assay: as above; conditions: 72 h
KAI3 (IL-2 2.5 ng/mL) [4] = assay: as above; conditions: 72 h
KHYG-1 (IL-2 2.5 ng/mL) [5] = assay: as above; conditions: 72 h
NK-92 (IL-2 2.5 ng/mL) [6] = assay: as above; conditions: 72 h
NK-YS (IL-2 2.5 ng/mL) [7] = assay: as above; conditions: 72 h
NKL (IL-2 2.5 ng/mL) [8] = assay: as above; conditions: 72 h
SNK-6 (IL-2 2.5 ng/mL) [9] = assay: as above; conditions: 72 h
YT (IL-2 2.5 ng/mL) [10] = assay: as above; conditions: 72 h
[11] = tested on: normal primary NK cells, pool 1 (3 donors) (IL-2 2.5 ng/mL); assay: as above; conditions: 72 h
[12] = tested on: normal primary NK cells, pool 1 (3 donors), resting (IL-2 0 ng/mL); assay: as above; conditions: 72 h
[13] = tested on: normal primary NK cells, pool 2 (3 donors) (IL-2 2.5 ng/mL); assay: as above; conditions: 72 h
[14] = tested on: normal primary NK cells, pool 3 (3 donors) (IL-2 2.5 ng/mL); assay: as above; conditions: 72 h
[15] = tested on: normal NK cells expanded with K562-aAPC; assay: drug sensitivity score (DSS) (DSS units); higher = more sensitive; extreme values may be limits of the assay; conditions: 72 h; IL-2 2.5 ng/mL
Experimental: as §1

DERL-7 (IL-2 2.5 ng/mL) [16] = assay: as above; conditions: 72 h
IMC-1 (IL-2 20 ng/mL) [17] = assay: as above; conditions: 72 h
KAI3 (IL-2 2.5 ng/mL) [18] = assay: as above; conditions: 72 h
KHYG-1 (IL-2 2.5 ng/mL) [19] = assay: as above; conditions: 72 h
NK-92 (IL-2 2.5 ng/mL) [20] = assay: as above; conditions: 72 h
NK-YS (IL-2 2.5 ng/mL) [21] = assay: as above; conditions: 72 h
NKL (IL-2 2.5 ng/mL) [22] = assay: as above; conditions: 72 h
SNK-6 (IL-2 2.5 ng/mL) [23] = assay: as above; conditions: 72 h
YT (IL-2 2.5 ng/mL) [24] = assay: as above; conditions: 72 h
[25] = tested on: normal primary NK cells, pool 1 (3 donors) (IL-2 2.5 ng/mL); assay: as above; conditions: 72 h
[26] = tested on: normal primary NK cells, pool 1 (3 donors), resting (IL-2 0 ng/mL); assay: as above; conditions: 72 h
[27] = tested on: normal primary NK cells, pool 2 (3 donors) (IL-2 2.5 ng/mL); assay: as above; conditions: 72 h
[28] = tested on: normal primary NK cells, pool 3 (3 donors) (IL-2 2.5 ng/mL); assay: as above; conditions: 72 h

CCN1CCN(Cc2ccc(Nc3ncc(F)c(-c4cc(F)c5nc(C)n(C(C)C)c5c4)n3)nc2)CC1 [Abemaciclib] (max concentration tested 2500 nM)
percent inhibition of viability [%]
Conditions | 0.25 nM | 2.5 nM | 25 nM | 250 nM | 2500 nM
DERL-7 (IL-2 2.5 ng/mL) [2] | -4.64 | -2.09 | 8.58 | 51.3 | 73.9
IMC-1 (IL-2 20 ng/mL) [3] | 1.3 | -5.47 | -5.79 | -18.8 | 97.5
KAI3 (IL-2 2.5 ng/mL) [4] | -4.55 | -3.34 | -6.9 | -4.76 | 11.8
KHYG-1 (IL-2 2.5 ng/mL) [5] | -1.33 | -1.51 | -0.04 | 42.8 | 79.8
NK-92 (IL-2 2.5 ng/mL) [6] | -9.23 | 0.87 | -2.31 | 7.25 | 42
NK-YS (IL-2 2.5 ng/mL) [7] | -3.7 | -3.12 | 0.09 | 18 | 95
NKL (IL-2 2.5 ng/mL) [8] | -11.9 | -8.91 | -19.3 | -11.8 | 38
SNK-6 (IL-2 2.5 ng/mL) [9] | 22.8 | 13.2 | 4.72 | 15.4 | 29.8
YT (IL-2 2.5 ng/mL) [10] | -0.11 | 3.29 | -1.68 | 5.51 | 7.94
[1] | 2.02 | -3.3 | 4.81 | 17.7 | 41.3
[11] | -4.8 | -6.62 | -2.33 | 9.08 | 24.4
[12] | -12.7 | -5.25 | -10.3 | -47.3 | -83.7
[13] | -7.88 | -7.14 | 0.77 | 1.36 | 50.7
[14] | -10.9 | -4.53 | -8.73 | -3.71 | 11.1

Conditions | drug sensitivity score
DERL-7 (IL-2 2.5 ng/mL) [16] | 10.8
IMC-1 (IL-2 20 ng/mL) [17] | 4.41
KAI3 (IL-2 2.5 ng/mL) [18] | 0.01
KHYG-1 (IL-2 2.5 ng/mL) [19] | 9.69
NK-92 (IL-2 2.5 ng/mL) [20] | 3.33
NK-YS (IL-2 2.5 ng/mL) [21] | 8.19
NKL (IL-2 2.5 ng/mL) [22] | 1.33
SNK-6 (IL-2 2.5 ng/mL) [23] | 0.14
YT (IL-2 2.5 ng/mL) [24] | 0
[15] | 3.89
[25] | 2.05
[26] | 0.89
[27] | 2.85
[28] | 0
